Assay results taken from US11173119B2 (YALE UNIVERSITY, priority 2012, dated 2021).

What was measured:
[1] = cited from earlier work
Splenocytes = test: IL-2 bioactivity study (splenocyte stimulation, IFN-γ ELISA); type: cell-based, B6 mouse; details: IFN-γ production correlated with IL-2 concentration
Protocol: Splenocytes were isolated from a B6 mouse and 1×10^6 cells were added in 500 μL T cell media to each well of a 24 well plate previously coated with 10 μg/mL anti-CD3 (coated overnight in 1×PBS at 4° C.) and 5 μg/mL soluble anti-CD28 (BD Biosciences). The media from release studies was filtered through a 0.22-μm syringe filter (Whatman) and 500 μL was added to the wells. Additionally all wells contained 5 μg/mL, soluble anti-CD28 (BD Biosciences). […] Cells were incubated at 37° C. and cellular stimulation was assessed after 72 hours using an IFN-γ ELISA (BD Biosciences).

B16 melanomas = test: In vivo subcutaneous tumor studies, intratumoral nanolipogel therapy; design: species or system B6 albino mice
Protocol: B16-F10 cells (ATCC) were cultured in DMEM (Gibco) and suspended at 2×10^6 cells/mL in 1×PBS (kept on ice) directly prior to injection. For subcutaneous tumor studies, female 6-8 week-old B6 albino mice were sedated with AErrane (isofluorane; Baxter) and the right hind flank was shaved prior to a subcutaneous injection of 50 μL of the cellular suspension. Tumors were monitored and treatment began when the average tumor area reached approximately 5.5 mm^2 (8-10 days after B16 injection; mice were rearranged to normalize tumor sizes across groups).
Observers were blinded for tumor area and survival studies. […] Five mice per group were euthanized at different timepoints and tumors were extracted and weighed.

B16 lung metastases = test: Metastatic B16 lung tumor study, intravenous nanolipogel therapy; type: in vivo, B6 mice; details: two weeks after initial treatment
Protocol: Metastatic B16 melanomas were established in female 6-8 week old B6 mice by intravenous (tail vein) administration of 50 μL of B16 cellular suspension as described by Gorelik, et al. Nat Med 7, 1118-1122 (2001). […] After sacrifice, the chest cavity was exposed and the lungs perfused by making a small incision in the right atrium and injecting 10 mL of cold PBS into the right ventricle. Lung metastates were counted by blinded observers who recorded dark circular masses ranging from 0.1-3 mm as unique tumors.

Cc1cccc(-c2[nH]c(C(C)(C)C)nc2-c2ccc3c(c2)OCO3)n1.Cl [SB, 2-(5-benzo[1,3]dioxol-5-yl-2-tert-butyl-3H-imidazol-4-yl)-6-methylpyridine hydrochloride]
Log P [1]: 4.33 | bioactivity after lipogel incorporation (Splenocytes): unaffected | survival (B16 melanomas; intratumoral): did not improve survival | tumor growth (tumor area versus time) (B16 melanomas; weekly intratumoral administration): failed to delay tumor growth | number of lung tumors (B16 lung metastases): failed to reduce the number of lung tumors
